Data taken from PMC12595434, “Development of retinoid nuclear receptor pathway antagonists through targeting aldehyde dehydrogenase 1A3” (iScience, 2025).
Values after ≈ are worked out from the molar mass of the structure shown. Where two headings read alike, the source gives them in different places.

Tests used:
Plasma stability (human) = format: in vitro ADME; conditions: read-out: Plasma stability T1/2 (human)
[1] = test system: human ALDH1A3 in MCF7-ALDH1A3 cells; assay: STRA6 qPCR retinoid inhibition assay in MCF7-ALDH1A3 cells; conditions: for IC50: 24 h, read-out: cellular IC50 for ALDH1A3, STRA6 mRNA; for EC50: read-out: EC50 cellular, human ALDH1A3
ACHE = ACHE (Homo sapiens, UniProt P22303); assay: Off-target profiling panel; format: biochemical; conditions: read-out: Inhibition by MBE1 at 10 μM (%)
ACHE, sequence (P22303 32-614): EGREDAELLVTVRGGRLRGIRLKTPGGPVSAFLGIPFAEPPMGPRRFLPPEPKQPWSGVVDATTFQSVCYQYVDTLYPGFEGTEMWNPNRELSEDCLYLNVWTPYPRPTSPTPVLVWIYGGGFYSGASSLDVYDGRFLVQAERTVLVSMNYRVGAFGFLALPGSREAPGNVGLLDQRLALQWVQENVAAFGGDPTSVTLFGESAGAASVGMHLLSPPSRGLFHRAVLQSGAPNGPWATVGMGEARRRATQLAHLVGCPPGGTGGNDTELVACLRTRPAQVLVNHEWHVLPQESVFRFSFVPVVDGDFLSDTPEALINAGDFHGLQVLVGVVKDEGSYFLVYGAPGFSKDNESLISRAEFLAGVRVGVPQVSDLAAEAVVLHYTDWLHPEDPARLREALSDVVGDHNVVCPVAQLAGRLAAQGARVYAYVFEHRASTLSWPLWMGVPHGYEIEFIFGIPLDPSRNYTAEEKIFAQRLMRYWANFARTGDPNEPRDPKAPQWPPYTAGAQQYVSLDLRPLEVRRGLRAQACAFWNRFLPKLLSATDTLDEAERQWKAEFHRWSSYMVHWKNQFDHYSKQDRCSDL

Kinetic solubility = format: physicochemical; conditions: kinetic from dmso stock
From the text: Table 1 Physiochemical, biochemical, and metabolic profile of lead compounds MBE1 and MBE1.5 | column: MBE1; MBE1.5

hERG = hERG (Homo sapiens, UniProt Q12809); assay: hERG dofetilide binding assay
hERG, sequence (Q12809 whole entry): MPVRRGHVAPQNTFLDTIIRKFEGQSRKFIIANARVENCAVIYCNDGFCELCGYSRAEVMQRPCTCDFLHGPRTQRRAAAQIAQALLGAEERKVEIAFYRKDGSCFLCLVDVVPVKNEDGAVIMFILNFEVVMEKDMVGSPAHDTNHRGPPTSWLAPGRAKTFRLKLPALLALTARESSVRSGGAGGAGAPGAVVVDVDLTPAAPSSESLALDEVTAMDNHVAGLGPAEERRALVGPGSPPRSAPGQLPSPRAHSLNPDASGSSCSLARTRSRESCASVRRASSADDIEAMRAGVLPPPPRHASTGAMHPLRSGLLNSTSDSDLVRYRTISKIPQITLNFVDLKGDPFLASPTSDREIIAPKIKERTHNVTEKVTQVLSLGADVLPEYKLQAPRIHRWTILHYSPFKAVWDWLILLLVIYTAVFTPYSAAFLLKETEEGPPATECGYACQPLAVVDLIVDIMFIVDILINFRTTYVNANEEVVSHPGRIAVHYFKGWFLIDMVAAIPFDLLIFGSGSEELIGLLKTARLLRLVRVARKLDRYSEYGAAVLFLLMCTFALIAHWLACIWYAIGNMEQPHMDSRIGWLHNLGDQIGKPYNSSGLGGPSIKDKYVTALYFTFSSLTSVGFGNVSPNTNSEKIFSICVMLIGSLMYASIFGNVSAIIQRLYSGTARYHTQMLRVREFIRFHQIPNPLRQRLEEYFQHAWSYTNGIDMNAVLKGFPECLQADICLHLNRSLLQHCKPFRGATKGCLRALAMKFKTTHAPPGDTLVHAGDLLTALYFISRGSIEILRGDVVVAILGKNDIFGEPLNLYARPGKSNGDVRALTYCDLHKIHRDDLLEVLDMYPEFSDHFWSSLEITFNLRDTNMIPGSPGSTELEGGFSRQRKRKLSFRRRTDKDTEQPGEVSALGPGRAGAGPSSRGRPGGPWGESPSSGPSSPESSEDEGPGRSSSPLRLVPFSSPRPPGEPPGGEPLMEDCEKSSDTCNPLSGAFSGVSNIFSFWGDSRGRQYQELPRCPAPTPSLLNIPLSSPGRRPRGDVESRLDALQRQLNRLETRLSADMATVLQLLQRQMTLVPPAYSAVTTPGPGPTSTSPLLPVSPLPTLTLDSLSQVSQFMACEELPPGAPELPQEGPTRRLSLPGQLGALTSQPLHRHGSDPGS

CYP2D6 = CYP2D6 (Homo sapiens, UniProt P10635); assay: CYP inhibition; format: in vitro ADME
CYP2D6, sequence (P10635 whole entry): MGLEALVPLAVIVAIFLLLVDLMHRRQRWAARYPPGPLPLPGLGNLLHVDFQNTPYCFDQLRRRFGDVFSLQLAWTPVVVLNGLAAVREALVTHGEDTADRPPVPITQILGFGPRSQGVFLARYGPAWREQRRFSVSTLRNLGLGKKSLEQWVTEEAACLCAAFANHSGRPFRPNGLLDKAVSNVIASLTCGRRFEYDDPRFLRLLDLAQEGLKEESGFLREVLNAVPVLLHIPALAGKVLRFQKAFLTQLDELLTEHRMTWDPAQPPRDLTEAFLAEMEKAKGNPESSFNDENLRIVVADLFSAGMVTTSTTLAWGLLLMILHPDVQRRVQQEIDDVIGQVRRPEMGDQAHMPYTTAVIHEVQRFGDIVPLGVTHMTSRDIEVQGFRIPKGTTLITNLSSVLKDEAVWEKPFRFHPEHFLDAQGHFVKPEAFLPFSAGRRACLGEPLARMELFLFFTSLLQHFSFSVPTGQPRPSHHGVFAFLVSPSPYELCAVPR

[2] = test system: endogenous ALDH1A3 in MDA-MB-468 cells; assay: Quantification of atRA in cells; format: cell-based, human; conditions: 24 h, dose titration
MDR2 = assay: MDCK-MDR2 bidirectional permeability assay; format: in vitro ADME; conditions: dog; efflux ratio; read-out: MDCK-MDR2 (B to A/A to B)
MDCK-MDR2 = MDCK-MDR2 bidirectional permeability assay; format: in vitro ADME; conditions: A to B
ALDH1A3 = target: T1, ALDH1A3 (Homo sapiens, UniProt P47895); assay: Microscale thermophoresis (MST) binding; set-up: made in house; host or cells: BL21-DE3 E. coli; conditions: biophysical assay (Table 1)
T1 sequence (P47895 1-512): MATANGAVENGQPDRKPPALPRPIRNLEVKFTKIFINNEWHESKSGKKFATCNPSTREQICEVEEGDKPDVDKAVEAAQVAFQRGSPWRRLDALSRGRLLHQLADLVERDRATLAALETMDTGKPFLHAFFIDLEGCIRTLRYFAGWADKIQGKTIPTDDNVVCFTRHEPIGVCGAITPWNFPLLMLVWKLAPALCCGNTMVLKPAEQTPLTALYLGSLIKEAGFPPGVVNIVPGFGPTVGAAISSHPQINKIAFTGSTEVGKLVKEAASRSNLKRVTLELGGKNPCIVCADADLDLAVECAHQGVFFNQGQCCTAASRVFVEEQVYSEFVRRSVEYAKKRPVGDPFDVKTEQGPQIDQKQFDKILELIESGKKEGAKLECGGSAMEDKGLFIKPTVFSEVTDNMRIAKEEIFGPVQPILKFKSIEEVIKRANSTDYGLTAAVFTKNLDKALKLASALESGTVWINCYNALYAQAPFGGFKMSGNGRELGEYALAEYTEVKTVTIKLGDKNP

ROBO1 = target: T2, ROBO1 (Homo sapiens, UniProt Q9Y6N7); assay: Thermal proteome profiling (TPP) in A375 cells; format: cell-based; conditions: ROBO1, 100 nM
T2 construct: Treated A375 cells were harvested from 10 × 15 cm plates; endogenous in cells; host or cells: A375 melanoma cells
T2 sequence (Q9Y6N7 26-1651): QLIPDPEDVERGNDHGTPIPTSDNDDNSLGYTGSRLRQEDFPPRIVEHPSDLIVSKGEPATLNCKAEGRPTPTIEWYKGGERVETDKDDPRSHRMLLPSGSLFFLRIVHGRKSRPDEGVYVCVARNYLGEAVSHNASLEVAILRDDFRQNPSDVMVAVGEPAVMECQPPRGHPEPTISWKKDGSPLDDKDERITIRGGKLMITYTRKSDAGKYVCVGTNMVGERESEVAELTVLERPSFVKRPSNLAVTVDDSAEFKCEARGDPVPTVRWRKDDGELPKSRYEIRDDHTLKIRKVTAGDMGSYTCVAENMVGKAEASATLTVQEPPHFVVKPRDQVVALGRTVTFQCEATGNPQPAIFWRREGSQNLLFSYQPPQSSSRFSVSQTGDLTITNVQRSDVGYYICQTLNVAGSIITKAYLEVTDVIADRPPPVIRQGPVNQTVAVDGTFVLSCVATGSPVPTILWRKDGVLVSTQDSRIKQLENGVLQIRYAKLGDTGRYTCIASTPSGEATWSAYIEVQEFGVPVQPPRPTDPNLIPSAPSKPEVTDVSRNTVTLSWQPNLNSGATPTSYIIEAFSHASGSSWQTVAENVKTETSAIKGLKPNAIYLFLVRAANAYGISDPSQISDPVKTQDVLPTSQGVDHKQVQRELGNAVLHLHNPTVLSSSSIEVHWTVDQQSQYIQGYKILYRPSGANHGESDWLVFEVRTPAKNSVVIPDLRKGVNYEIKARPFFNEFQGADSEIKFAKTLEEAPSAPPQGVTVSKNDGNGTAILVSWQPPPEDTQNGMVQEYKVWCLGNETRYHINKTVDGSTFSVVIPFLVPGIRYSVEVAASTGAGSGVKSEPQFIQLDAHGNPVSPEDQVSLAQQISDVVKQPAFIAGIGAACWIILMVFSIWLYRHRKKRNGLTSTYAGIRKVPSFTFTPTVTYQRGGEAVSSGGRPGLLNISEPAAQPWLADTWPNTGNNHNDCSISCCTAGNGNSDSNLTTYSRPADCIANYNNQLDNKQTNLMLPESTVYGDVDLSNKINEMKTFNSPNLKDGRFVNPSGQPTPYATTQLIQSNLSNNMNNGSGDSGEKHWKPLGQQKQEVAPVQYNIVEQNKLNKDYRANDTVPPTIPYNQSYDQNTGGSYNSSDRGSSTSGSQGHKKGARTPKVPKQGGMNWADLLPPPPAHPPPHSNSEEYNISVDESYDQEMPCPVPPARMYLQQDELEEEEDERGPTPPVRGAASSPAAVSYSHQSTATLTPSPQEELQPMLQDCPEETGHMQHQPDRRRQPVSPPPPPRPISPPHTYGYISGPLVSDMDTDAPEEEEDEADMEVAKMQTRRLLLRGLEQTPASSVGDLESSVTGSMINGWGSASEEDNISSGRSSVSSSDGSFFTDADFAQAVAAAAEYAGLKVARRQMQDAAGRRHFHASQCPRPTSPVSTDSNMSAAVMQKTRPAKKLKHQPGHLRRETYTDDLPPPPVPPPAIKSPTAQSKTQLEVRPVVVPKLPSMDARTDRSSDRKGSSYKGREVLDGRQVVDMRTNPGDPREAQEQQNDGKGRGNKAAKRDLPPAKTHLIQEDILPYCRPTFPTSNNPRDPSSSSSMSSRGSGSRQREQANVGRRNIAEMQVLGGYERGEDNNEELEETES

[3] = Cytotoxicity, 48 h tetrazolium proliferation assay
CYP1A2 = CYP1A2 (Homo sapiens, UniProt P05177); assay: CYP inhibition; format: in vitro ADME
CYP1A2, sequence (P05177 whole entry): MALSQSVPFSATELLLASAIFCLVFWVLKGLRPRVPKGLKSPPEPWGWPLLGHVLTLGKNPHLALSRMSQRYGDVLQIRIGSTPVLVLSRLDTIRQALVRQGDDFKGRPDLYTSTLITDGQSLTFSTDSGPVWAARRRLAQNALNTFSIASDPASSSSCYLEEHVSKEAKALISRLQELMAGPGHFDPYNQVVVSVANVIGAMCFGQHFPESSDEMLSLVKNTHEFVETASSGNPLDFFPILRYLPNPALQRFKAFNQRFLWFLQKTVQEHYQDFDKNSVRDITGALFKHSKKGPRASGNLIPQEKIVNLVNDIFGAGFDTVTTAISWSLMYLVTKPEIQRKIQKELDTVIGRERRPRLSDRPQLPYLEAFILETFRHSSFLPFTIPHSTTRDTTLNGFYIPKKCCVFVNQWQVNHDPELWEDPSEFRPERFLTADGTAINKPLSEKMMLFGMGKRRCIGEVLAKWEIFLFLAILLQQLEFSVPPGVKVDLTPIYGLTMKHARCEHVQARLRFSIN

D1 = D1 (Homo sapiens, UniProt P21728); assay: Off-target profiling panel; format: binding; conditions: read-out: Inhibition by MBE1 at 10 μM (%)
D1, sequence (P21728 whole entry): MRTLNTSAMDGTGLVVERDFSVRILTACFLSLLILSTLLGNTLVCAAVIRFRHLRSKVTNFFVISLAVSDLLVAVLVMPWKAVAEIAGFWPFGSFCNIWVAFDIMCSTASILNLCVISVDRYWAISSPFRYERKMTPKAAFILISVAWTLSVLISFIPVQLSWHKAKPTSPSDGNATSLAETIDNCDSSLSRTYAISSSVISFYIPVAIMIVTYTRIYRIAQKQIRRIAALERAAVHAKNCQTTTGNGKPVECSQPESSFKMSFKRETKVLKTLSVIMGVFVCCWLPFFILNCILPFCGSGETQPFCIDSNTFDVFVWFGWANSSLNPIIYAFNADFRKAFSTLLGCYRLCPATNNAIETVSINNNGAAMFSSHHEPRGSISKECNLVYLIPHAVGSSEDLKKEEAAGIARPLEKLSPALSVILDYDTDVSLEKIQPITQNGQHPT

[4] = IV/PO pharmacokinetics in fasted male CD-1 mice
T3-MCA sarcoma = assay: T3-MCA syngeneic tumor growth; format: in vivo, mouse; conditions: MBE1.5-formulated diet 270 ppm (equivalent 40 mg/kg per day), by day 7 of treatment
Method: A considerable number of research efforts have attempted to generate retinoid nuclear receptor pathway antagonists, whether through targeting retinoid transport, the atRA synthetic enzymes, or by creating inverse agonists of the RAR/RXR nuclear receptors. […] Thus, mice were injected subcutaneously with T3-MCA sarcoma cells and were randomized by tumor size once tumors became palpable. One group received MBE1.5-formulated diet at 270 ppm (equivalent dose of 40 mg/kg body mass per day based on average food consumption), and the other group received control diet.
No statistical method was used to predetermine the number of animals needed across experiments. Xenograft experiments were conducted using 50k cells suspended in 10 μL PBS for mammary gland injection or 100k cells in 100 μL PBS for subcutaneous injection. Bioluminescent imaging (BLI) and tumor measurement was conducted as previously described.[78] IV/PO pharmacokinetic analysis of MBE1 and MBE1.5 was conducted on male CD-1 mice from Vital River that had been fasted for 4 h. Sampling was performed from either jugular puncture or tail-vein sampling using BD yellow-capped tubes for serum analysis or K2-EDTA tubes for hematology. Medicated feed was manufactured at Envigo using MBE1.5 powder with a final concentration of 270 ppm. Medicated diet was stored at 4°C for no longer than 6 months at a time.

[5] = pH 4.5, aqueous buffer, read-out: Kinetic solubility pH 4.5
[6] = pH 7.6, aqueous buffer, read-out: Kinetic solubility pH 7.6
[7] = 1 mg/kg IV and 10 mg/kg PO, fasted male CD1 mice

| SMILES | IC50 [1] | EC50 [1] | solubility kinetic (Kinetic solubility; [5]) | solubility kinetic (Kinetic solubility; [6]) | IC50 (hERG) | inhibition at 10 µM (CYP2D6) | reduction of atRA formation (in words) [2] | efflux ratio (MDR2) | MDCK-MDR2 permeability A to B (MDCK-MDR2) | Kd (ALDH1A3) | Cytotoxicity [3] | inhibition at 10 µM (CYP1A2) | other results |
| --- | --- | --- | --- | --- | --- | --- | --- | --- | --- | --- | --- | --- | --- |
| CCc1cnccc1C(=O)Nc1cc2c(cc1F)NC(=O)CC2 [MBE1, 3-ethyl-N-(7-fluoro-2-oxo-3,4-dihydro-1H-quinolin-6-yl)pyridine-4-carboxamide] | 3.67 nM | 3.67 nM | > 200 µM | > 200 µM | > 30000 nM | 61.3% | potently reduced atRA formation | 2.42 | high | 71.7 nM | >100 µM | 8.8% | half-life (Plasma stability (human)): > 4.82 h; inhibition at 10 µM (ACHE): 5.81%; 100nM MBE1 Tm (ROBO1): 63.1814; DMSO-100nM MBE1 TM (ROBO1): -8.49; inhibition at 10 µM (D1): -16.4%; Oral bioavailability ([4]; 1 mg/kg i.v. and 10 mg/kg PO, fasted male CD-1 mice): 88.3%; half-life ([4]; male, CD-1, mouse, plasma, po, 10 mg/kg): 1.37 h |
| CCc1ccccc1C(=O)Nc1cc2c(cc1F)NC(=O)CC2 [MBE1.5, 2-ethyl-N-(7-fluoro-2-oxo-3,4-dihydro-1H-quinolin-6-yl)benzamide] | < 1 nM | 0.53 nM | 34.2 µM (≈ 10.7 µg/mL) | 33.3 µM (≈ 10.4 µg/mL) | > 30000 nM | 0% | potently reduced atRA formation | 0.6 | high | 42.1 nM | >100 µM | 11.6% | tumor growth (in words) (T3-MCA sarcoma): dramatically reduced tumor growth; bioavailability compared with MBE1 (in words) [4, 7]: reduced bioavailability; half-life compared with MBE1 (in words) [4, 7]: improved half-life |
